From PubChem BioAssay (NCI)
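The concentration for 50% growth inhibition is given as GI50. TGI denotes the concentration required for complete inhibition of growth.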

How the values were obtained:
Test in all cases: inhibition of tumour cell growth, NCI panel, 384-well format
[1] = tested on: SNB-19 CNS
[2] = tested on: BT-549 breast
[3] = tested on: NCI-H226 lung
[4] = tested on: CAKI-1 renal
[5] = tested on: HOP-92 NSCLC
[6] = tested on: EKVX NSCLC
[7] = tested on: DU-145 prostate
[8] = tested on: MDA-MB-468 breast
[9] = tested on: RPMI-8226 leukemia
[10] = tested on: HL-60(TB) leukemia
[11] = tested on: MOLT-4 leukemia
[12] = tested on: OVCAR-3 ovarian
[13] = tested on: NCI-H460 NSCLC
[14] = tested on: SF-295 CNS
[15] = tested on: SK-MEL-2 melanoma
[16] = tested on: PC-3 prostate
[17] = tested on: MALME-3M melanoma
[18] = tested on: IGROV1 ovarian
[19] = tested on: UACC-62 melanoma
[20] = tested on: T-47D breast
[21] = tested on: SW-620 colon
[22] = tested on: A549 NSCLC
[23] = tested on: SK-MEL-28 melanoma
[24] = tested on: RXF 393 renal
[25] = tested on: SK-OV-3 ovarian
[26] = tested on: SN12C renal
[27] = tested on: KM12 colon
[28] = tested on: UACC-257 melanoma
[29] = tested on: MCF7 breast
[30] = tested on: A498 renal
[31] = tested on: NCI-H23 lung
[32] = tested on: COLO 205 colon
[33] = tested on: ACHN renal
[34] = tested on: HCT-116 colon
[35] = tested on: CCRF-CEM leukemia
[36] = tested on: HCC-2998 colon
[37] = tested on: HOP-62 NSCLC
[38] = tested on: OVCAR-5 ovarian
[39] = tested on: MDA-MB-435 melanoma
[40] = tested on: HCT-15 colon
[41] = tested on: UO-31 renal
[42] = tested on: M14 melanoma
[43] = tested on: NCI-H322M lung
[44] = tested on: NCI/ADR-RES ovarian
[45] = tested on: TK-10 renal
[46] = tested on: SF-268 CNS
[47] = tested on: U251 glioblastoma
[48] = tested on: OVCAR-8 ovarian
[49] = tested on: SR leukemia
[50] = tested on: LOX IMVI melanoma
[51] = tested on: SNB-75 CNS
[52] = tested on: HT29 colon
[53] = tested on: OVCAR-4 ovarian
[54] = tested on: K-562 leukemia
[55] = tested on: NCI-H522 lung
[56] = tested on: MDA-MB-231 breast
[57] = tested on: 786-0 renal
[58] = tested on: SF-539 CNS
[59] = tested on: SK-MEL-5 melanoma

Which results are given for `C=CC(=O)N1CC[C@@H](Oc2nc(Nc3ccc(N4CCC(N5CCN(C)CC5)CC4)cc3)c(C(N)=O)nc2CC)C1`?
GI50 [1]: > 100 µM; TGI [1]: > 100 µM; GI50 [2]: > 100 µM; TGI [2]: > 100 µM; GI50 [3]: > 100 µM; TGI [3]: > 100 µM; GI50 [4]: > 100 µM; TGI [4]: > 100 µM; GI50 [5]: > 100 µM; TGI [5]: > 100 µM; GI50 [6]: > 100 µM; TGI [6]: > 100 µM; GI50 [7]: > 100 µM; TGI [7]: > 100 µM; GI50 [8]: > 100 µM; TGI [8]: > 100 µM; GI50 [9]: > 100 µM; TGI [9]: > 100 µM; GI50 [10]: > 100 µM; TGI [10]: > 100 µM; GI50 [11]: > 100 µM; TGI [11]: > 100 µM; GI50 [12]: > 100 µM; TGI [12]: > 100 µM; GI50 [13]: > 100 µM; TGI [13]: > 100 µM; GI50 [14]: > 100 µM; TGI [14]: > 100 µM; GI50 [15]: > 100 µM; TGI [15]: > 100 µM; GI50 [16]: > 100 µM; TGI [16]: > 100 µM; GI50 [17]: > 100 µM; TGI [17]: > 100 µM; GI50 [18]: > 100 µM; TGI [18]: > 100 µM; GI50 [19]: > 100 µM; TGI [19]: > 100 µM; GI50 [20]: > 100 µM; TGI [20]: > 100 µM; GI50 [21]: > 100 µM; TGI [21]: > 100 µM; GI50 [22]: > 100 µM; TGI [22]: > 100 µM; GI50 [23]: > 100 µM; TGI [23]: > 100 µM; GI50 [24]: > 100 µM; TGI [24]: > 100 µM; GI50 [25]: > 100 µM; TGI [25]: > 100 µM; GI50 [26]: > 100 µM; TGI [26]: > 100 µM; GI50 [27]: > 100 µM; TGI [27]: > 100 µM; GI50 [28]: > 100 µM; TGI [28]: > 100 µM; GI50 [29]: > 100 µM; TGI [29]: > 100 µM; GI50 [30]: > 100 µM; TGI [30]: > 100 µM; GI50 [31]: > 100 µM; TGI [31]: > 100 µM; GI50 [32]: > 100 µM; TGI [32]: > 100 µM; GI50 [33]: > 100 µM; TGI [33]: > 100 µM; GI50 [34]: > 100 µM; TGI [34]: > 100 µM; GI50 [35]: > 100 µM; TGI [35]: > 100 µM; GI50 [36]: > 100 µM; TGI [36]: > 100 µM; GI50 [37]: > 100 µM; TGI [37]: > 100 µM; GI50 [38]: > 100 µM; TGI [38]: > 100 µM; GI50 [39]: > 100 µM; TGI [39]: > 100 µM; GI50 [40]: > 100 µM; TGI [40]: > 100 µM; GI50 [41]: > 100 µM; TGI [41]: > 100 µM; GI50 [42]: > 100 µM; TGI [42]: > 100 µM; GI50 [43]: > 100 µM; TGI [43]: > 100 µM; GI50 [44]: > 100 µM; TGI [44]: > 100 µM; GI50 [45]: > 100 µM; TGI [45]: > 100 µM; GI50 [46]: > 100 µM; TGI [46]: > 100 µM; GI50 [47]: > 100 µM; TGI [47]: > 100 µM; GI50 [48]: > 100 µM; TGI [48]: > 100 µM; GI50 [49]: > 87.9 µM; TGI [49]: > 100 µM; GI50 [50]: > 100 µM; TGI [50]: > 100 µM; GI50 [51]: > 100 µM; TGI [51]: > 100 µM; GI50 [52]: > 100 µM; TGI [52]: > 100 µM; GI50 [53]: > 100 µM; TGI [53]: > 100 µM; GI50 [54]: > 88.9 µM; TGI [54]: > 100 µM; GI50 [55]: > 100 µM; TGI [55]: > 100 µM; GI50 [56]: > 100 µM; TGI [56]: > 100 µM; GI50 [57]: > 100 µM; TGI [57]: > 100 µM; GI50 [58]: > 100 µM; TGI [58]: > 100 µM; GI50 [59]: > 100 µM; TGI [59]: > 100 µM
